Measured values from patent publication US9493455B2, “Azaindole derivatives as inhibitors of protein kinases” (ORIBASE PHARMA, priority 2012, dated 2016).

How the values were obtained:
ABL = target: T1, ABL (Homo sapiens, UniProt P00519); test: In vitro kinase assay (Z′-LYTE); format: biochemical; settings: read-out: % of inhibition of the kinase compared to the control
T1 construct: purchased Invitrogen
Experimental: (§1) The inhibitory activity of the compounds on several kinases including BRAF, EGFR (ErbB1), EGFR (ErbB1) T790M L858R, FGFR2, KDR (VEGFR2), PDGFRA (PDGFR alpha), SRC and other was evaluated by Invitrogen using the Z′-LYTE® technology. Briefly, the Z′-LYTE® biochemical assay employs a fluorescence-based, coupled-enzyme format and is based on the differential sensitivity of phosphorylated and non-phosphorylated peptides to proteolytic cleavage. The peptide substrate is labeled with two fluorophores—one at each end—that make up a FRET pair. A ratiometric method, which calculates the ratio (the Emission Ratio) of donor emission to acceptor emission after excitation of the donor fluorophore at 400 nm, is used to quantitate reaction progress.
(§2) The compounds are screened in 1% DMSO (final) in the well. For 10 point titrations, 3-fold serial dilutions are conducted from the starting concentration. All Peptide/Kinase Mixtures are diluted to a 2× working concentration in the appropriate Kinase Buffer. All ATP Solutions are diluted to a 4× working concentration in Kinase Buffer (50 mM HEPES pH 7.5, 0.01% BRIJ-35, 10 mM MgCl2, 1 mM EGTA). ATP Km apparent is previously determined using a Z′-LYTE® assay.
(§3) Each compound was incubated at a concentration of 100 nM (excepted to test the activity against ABL and ABL T315I for which the compounds were incubated at a concentration of 10 μM) and the tables B1 to B12 summarize the results obtained showing the inhibitory power of a compound. The inhibitory activity of OR0512 was also investigated using the same assays and the kinases for which activity was inhibited at more than 50% at the concentration of 100 nM of OR0512 are listed in the table B13.

ABL T315I = target: T2, ABL T315I (Homo sapiens, UniProt P00519, T315I); test: In vitro kinase assay (Z′-LYTE); format: biochemical; settings: read-out: % of inhibition of the kinase compared to the control
T2 construct: purchased Invitrogen
Experimental: as §1, §2, §3

BRAF = target: T3, BRAF (Homo sapiens, UniProt P15056); test: In vitro kinase assay (Z′-LYTE); format: biochemical; settings: compound 100 nM; ATP 100 μM; read-out: % of inhibition of the kinase compared to the control
T3 construct: purchased Invitrogen
T3 sequence (P15056 whole entry): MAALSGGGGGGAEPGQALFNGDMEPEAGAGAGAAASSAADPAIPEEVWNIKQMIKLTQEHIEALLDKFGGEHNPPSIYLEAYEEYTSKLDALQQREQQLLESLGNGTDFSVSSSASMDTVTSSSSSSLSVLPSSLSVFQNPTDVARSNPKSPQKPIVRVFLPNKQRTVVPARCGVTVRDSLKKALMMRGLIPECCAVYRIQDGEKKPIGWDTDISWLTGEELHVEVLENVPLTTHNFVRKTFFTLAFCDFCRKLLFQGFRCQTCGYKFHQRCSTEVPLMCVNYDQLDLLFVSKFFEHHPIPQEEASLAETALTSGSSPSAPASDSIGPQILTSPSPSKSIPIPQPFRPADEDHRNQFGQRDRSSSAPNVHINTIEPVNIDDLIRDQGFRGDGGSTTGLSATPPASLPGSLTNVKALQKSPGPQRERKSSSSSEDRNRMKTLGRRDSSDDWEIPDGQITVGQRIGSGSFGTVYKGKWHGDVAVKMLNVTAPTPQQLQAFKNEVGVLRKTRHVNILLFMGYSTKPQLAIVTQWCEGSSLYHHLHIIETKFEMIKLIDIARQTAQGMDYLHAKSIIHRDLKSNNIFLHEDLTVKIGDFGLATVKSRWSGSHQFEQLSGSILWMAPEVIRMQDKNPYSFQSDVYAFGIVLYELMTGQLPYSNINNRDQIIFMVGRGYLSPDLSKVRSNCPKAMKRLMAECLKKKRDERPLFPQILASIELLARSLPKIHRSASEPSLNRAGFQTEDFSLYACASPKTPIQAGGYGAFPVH
Experimental: as §1, §2, §3

EGFR (ErbB1) = target: T4, EGFR (ErbB1) (Homo sapiens, UniProt P00533); test: In vitro kinase assay (Z′-LYTE); format: biochemical; settings: read-out: % of inhibition of the kinase compared to the control
T4 construct: purchased Invitrogen
Experimental: as §1, §2, §3

EGFR (ErbB1) T790M L858R = target: T5, EGFR (ErbB1) T790M L858R (Homo sapiens, UniProt P00533, L858R/T790M); test: In vitro kinase assay (Z′-LYTE); format: biochemical; settings: read-out: % of inhibition of the kinase compared to the control
T5 construct: purchased Invitrogen
Experimental: as §1, §2, §3

FGFR1 = target: T6, FGFR1 (Homo sapiens, UniProt P11362); test: In vitro kinase assay (Z′-LYTE); format: biochemical; settings: read-out: % of inhibition of the kinase compared to the control
T6 construct: purchased Invitrogen
T6 sequence (P11362 22-822): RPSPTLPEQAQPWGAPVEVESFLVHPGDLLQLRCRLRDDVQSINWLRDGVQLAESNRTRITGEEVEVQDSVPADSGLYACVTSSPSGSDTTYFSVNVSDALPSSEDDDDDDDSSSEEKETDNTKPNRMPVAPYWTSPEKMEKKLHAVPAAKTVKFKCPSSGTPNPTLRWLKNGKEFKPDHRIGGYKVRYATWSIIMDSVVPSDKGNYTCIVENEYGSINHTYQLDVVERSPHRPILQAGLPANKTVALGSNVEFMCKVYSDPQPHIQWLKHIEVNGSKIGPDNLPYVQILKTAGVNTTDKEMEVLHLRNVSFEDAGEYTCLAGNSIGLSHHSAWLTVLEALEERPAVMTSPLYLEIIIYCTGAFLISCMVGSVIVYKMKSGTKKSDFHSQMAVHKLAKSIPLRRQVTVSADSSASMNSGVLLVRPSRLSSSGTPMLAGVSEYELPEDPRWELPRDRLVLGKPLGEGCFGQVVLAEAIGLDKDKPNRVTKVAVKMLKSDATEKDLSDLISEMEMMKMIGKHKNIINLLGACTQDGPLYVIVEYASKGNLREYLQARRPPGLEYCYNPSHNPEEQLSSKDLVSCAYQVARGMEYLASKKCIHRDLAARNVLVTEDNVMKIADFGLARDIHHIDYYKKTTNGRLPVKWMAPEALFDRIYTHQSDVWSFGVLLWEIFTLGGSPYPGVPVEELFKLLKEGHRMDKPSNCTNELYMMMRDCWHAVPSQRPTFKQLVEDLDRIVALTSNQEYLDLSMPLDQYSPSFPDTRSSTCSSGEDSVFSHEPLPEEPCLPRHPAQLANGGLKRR
Experimental: as §1, §2, §3

FGFR2 = target: T7, FGFR2 (Homo sapiens, UniProt P21802); test: In vitro kinase assay (Z′-LYTE); format: biochemical; settings: read-out: % of inhibition of the kinase compared to the control
T7 construct: purchased Invitrogen
Experimental: as §1, §2, §3

KDR (VEGFR2) = target: T8, KDR (VEGFR2) (Homo sapiens, UniProt P35968); test: In vitro kinase assay (Z′-LYTE); format: biochemical; settings: read-out: % of inhibition of the kinase compared to the control
T8 construct: purchased Invitrogen
T8 sequence (P35968 20-1356): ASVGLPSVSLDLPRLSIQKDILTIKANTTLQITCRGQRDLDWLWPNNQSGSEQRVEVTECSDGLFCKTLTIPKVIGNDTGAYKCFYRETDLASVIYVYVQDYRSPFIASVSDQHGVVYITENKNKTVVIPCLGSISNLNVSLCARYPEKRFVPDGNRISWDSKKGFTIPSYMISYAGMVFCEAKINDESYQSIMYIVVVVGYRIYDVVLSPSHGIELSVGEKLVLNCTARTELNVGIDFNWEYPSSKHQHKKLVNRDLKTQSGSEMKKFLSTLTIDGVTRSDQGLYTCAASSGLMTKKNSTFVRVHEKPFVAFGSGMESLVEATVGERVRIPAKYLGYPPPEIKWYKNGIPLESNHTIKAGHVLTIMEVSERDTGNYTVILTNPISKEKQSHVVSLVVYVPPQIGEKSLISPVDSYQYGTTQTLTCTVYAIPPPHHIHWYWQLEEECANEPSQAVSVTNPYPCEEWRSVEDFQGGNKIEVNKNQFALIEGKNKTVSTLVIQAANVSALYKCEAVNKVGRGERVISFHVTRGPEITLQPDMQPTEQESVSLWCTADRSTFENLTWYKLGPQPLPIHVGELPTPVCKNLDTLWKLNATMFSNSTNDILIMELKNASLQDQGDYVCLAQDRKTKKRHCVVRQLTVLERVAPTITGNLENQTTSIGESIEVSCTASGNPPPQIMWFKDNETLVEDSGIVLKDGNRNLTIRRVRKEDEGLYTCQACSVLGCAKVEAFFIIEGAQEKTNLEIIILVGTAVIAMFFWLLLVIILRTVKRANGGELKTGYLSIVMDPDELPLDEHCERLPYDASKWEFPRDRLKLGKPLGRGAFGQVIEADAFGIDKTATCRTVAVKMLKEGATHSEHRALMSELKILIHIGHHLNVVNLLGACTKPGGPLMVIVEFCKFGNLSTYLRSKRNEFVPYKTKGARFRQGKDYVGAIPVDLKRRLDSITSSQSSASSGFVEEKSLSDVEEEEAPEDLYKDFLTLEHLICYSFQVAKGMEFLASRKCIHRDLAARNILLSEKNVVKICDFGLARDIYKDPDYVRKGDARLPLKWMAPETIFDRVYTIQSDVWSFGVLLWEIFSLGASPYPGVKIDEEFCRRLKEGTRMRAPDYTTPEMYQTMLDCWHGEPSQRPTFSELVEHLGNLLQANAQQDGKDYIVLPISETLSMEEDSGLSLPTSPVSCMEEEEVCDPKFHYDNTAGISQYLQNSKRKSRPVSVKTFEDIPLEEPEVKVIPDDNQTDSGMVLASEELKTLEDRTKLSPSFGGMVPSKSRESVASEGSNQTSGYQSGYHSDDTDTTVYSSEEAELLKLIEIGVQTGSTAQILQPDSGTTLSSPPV
Experimental: as §1, §2, §3

PDGFRA (PDGFR alpha) = target: T9, PDGFRA (PDGFR alpha) (Homo sapiens, UniProt P16234); test: In vitro kinase assay (Z′-LYTE); format: biochemical; settings: read-out: % of inhibition of the kinase compared to the control
T9 construct: purchased Invitrogen
T9 sequence (P16234 24-1089): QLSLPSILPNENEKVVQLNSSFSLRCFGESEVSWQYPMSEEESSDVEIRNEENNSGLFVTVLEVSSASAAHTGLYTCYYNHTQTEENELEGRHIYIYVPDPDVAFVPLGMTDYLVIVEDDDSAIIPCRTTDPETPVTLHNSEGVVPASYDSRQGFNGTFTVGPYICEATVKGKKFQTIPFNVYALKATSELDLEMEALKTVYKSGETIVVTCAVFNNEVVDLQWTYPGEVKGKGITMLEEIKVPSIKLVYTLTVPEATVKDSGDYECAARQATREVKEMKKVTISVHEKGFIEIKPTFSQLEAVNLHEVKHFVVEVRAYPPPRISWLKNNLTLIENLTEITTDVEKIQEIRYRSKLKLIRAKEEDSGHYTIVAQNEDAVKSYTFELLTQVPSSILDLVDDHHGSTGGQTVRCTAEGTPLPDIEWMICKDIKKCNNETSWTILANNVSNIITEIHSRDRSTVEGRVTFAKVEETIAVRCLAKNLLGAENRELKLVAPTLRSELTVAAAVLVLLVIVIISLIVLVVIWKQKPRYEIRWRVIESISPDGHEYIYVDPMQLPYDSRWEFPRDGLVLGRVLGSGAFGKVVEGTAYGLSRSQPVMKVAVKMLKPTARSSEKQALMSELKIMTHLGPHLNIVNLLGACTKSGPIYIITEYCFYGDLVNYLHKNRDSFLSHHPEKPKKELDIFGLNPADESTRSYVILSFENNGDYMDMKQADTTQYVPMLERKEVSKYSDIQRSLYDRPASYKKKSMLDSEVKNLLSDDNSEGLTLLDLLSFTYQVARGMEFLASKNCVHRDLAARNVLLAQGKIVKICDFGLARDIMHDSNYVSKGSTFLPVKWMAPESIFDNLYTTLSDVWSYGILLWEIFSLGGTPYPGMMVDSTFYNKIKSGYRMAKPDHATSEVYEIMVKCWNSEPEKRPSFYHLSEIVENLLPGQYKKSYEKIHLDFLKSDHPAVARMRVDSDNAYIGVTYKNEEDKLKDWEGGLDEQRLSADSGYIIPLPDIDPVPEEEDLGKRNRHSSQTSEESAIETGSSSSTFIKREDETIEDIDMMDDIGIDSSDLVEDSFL
Experimental: as §1, §2, §3

PDGFRB = target: T10, PDGFRB (Homo sapiens, UniProt P09619); test: In vitro kinase assay (Z′-LYTE); format: biochemical; settings: read-out: % of inhibition of the kinase compared to the control
T10 construct: purchased Invitrogen
Experimental: as §1, §2, §3

SRC = target: T11, SRC (Homo sapiens, UniProt P12931); test: In vitro kinase assay (Z′-LYTE); format: biochemical; settings: read-out: % of inhibition of the kinase compared to the control
T11 construct: purchased Invitrogen
T11 sequence (P12931 whole entry): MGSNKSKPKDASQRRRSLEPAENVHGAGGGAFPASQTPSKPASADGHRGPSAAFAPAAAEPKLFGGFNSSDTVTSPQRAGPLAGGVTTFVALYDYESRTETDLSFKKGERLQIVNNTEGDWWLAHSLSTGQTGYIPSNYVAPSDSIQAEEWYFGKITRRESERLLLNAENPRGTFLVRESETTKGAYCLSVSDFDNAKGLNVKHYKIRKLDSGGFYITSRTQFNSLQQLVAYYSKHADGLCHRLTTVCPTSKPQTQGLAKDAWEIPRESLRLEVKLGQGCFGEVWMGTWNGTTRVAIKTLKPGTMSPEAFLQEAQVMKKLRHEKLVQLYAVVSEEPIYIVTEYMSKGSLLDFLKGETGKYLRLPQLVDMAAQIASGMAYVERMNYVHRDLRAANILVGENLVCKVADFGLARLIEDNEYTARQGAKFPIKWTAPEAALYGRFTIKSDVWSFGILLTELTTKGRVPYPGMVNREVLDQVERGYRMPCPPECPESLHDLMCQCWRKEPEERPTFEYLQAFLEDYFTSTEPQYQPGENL
Experimental: as §1, §2, §3

VEGFR1 = target: T12, VEGFR1 (Homo sapiens, UniProt P17948); test: In vitro kinase assay (Z′-LYTE); format: biochemical; settings: read-out: % of inhibition of the kinase compared to the control
T12 construct: purchased Invitrogen
Experimental: as §1, §2, §3

A549 = test: In vitro cell proliferation assay (MTT); format: cell-based; settings: Homo sapiens, A549, 72 h
Experimental: (§4) Cancer cell lines (5×10^3 cells per well) or HUVEC (1×10^4 cells per well) or HRMEC (1×10^4 cells per well) were distributed in 96-well plates and incubating in duplicate with escalating concentrations (10 nM to 3 μM) of compounds for 72 hr. Cell proliferation was measured using MTT (3 [4,5-dimethylthiazol-2-yl]-2,5-diphenyltetrazolium bromide).

BxPC-3 = test: In vitro cell proliferation assay (MTT); format: cell-based; settings: Homo sapiens, BXPC-3, 72 h
Experimental: as §4

H1975 = test: In vitro cell proliferation assay (MTT); format: cell-based; settings: Homo sapiens, NCI-H1975, 72 h
Experimental: as §4

HT29 = test: In vitro cell proliferation assay (MTT); format: cell-based; settings: Homo sapiens, HT-29, 72 h
Experimental: as §4

HUVEC = test: In vitro cell proliferation assay (MTT); format: cell-based; settings: Homo sapiens, 72 h
Experimental: as §4

HepG2 = test: In vitro cell proliferation assay (MTT); format: cell-based; settings: Homo sapiens, HepG2, 72 h
Experimental: as §4

HuCCT1 = test: In vitro cell proliferation assay (MTT); format: cell-based; settings: Homo sapiens, HuCCT-1, 72 h
Experimental: as §4

HuH7 = test: In vitro cell proliferation assay (MTT); format: cell-based; settings: Homo sapiens, Huh-7, 72 h
Experimental: as §4

SMILES | inhibition at 10 µM (ABL) [%] | inhibition at 10 µM (ABL T315I) [%] | inhibition at 0.1 µM (BRAF) [%] | inhibition at 0.1 µM (EGFR (ErbB1)) [%] | inhibition at 0.1 µM (EGFR (ErbB1) T790M L858R) [%] | inhibition at 0.1 µM (FGFR1) [%] | inhibition at 0.1 µM (FGFR2) [%] | inhibition at 0.1 µM (KDR (VEGFR2)) [%] | inhibition at 0.1 µM (PDGFRA (PDGFR alpha)) [%] | inhibition at 0.1 µM (PDGFRB) [%] | inhibition at 0.1 µM (SRC) [%] | inhibition at 0.1 µM (VEGFR1) [%] | EC50 (A549) [nM] | EC50 (BxPC-3) [nM] | EC50 (H1975) [nM] | EC50 (HT29) [nM] | EC50 (HUVEC) [nM] | EC50 (HepG2) [nM] | EC50 (HuCCT1) [nM] | EC50 (HuH7) [nM]
COC(=O)c1cc2cc(NCc3cc(NC(=O)Cc4ccccc4Br)ccc3C)cnc2[nH]1 [OR0599] | ≥ 50 | < 50 | ≥ 50 | < 50 | < 50 | < 50 | < 50 | < 50 | ≥ 50 | ≥ 50 | ≥ 50 | < 50 | 100 to 1000 | ≥ 1000 | 100 to 1000 | ≥ 1000 | 100 to 1000 | 100 to 1000 | ≥ 1000 | 
COC(=O)c1cc2cc(NCc3cc(NC(=O)c4ccc(O)c(C(F)(F)F)c4)ccc3C)cnc2[nH]1 [OR0605] | ≥ 50 | < 50 | < 50 | ≥ 50 | < 50 | < 50 | < 50 | < 50 | ≥ 50 | < 50 | ≥ 50 | < 50 |  | ≥ 1000 |  |  |  |  |  | 100 to 1000
COC(=O)c1cc2cc(NCc3cc(NC(=O)c4cccc(C)c4)ccc3C)cnc2[nH]1 [OR0607] | ≥ 50 | < 50 | ≥ 50 | < 50 | < 50 | < 50 | < 50 | ≥ 50 | ≥ 50 | ≥ 50 | ≥ 50 | < 50 | 100 to 1000 | 100 to 1000 | 100 to 1000 | 100 to 1000 | ≤ 100 | 100 to 1000 | 100 to 1000 | 
COC(=O)c1cc2cc(NCc3cc(NC(=O)c4ccc5c(c4)OCO5)ccc3C)cnc2[nH]1 [OR0615] | ≥ 50 | < 50 | ≥ 50 | < 50 | < 50 | < 50 | < 50 | ≥ 50 | ≥ 50 | ≥ 50 | ≥ 50 | < 50 | ≥ 1000 | ≥ 1000 | ≥ 1000 | ≥ 1000 | 100 to 1000 | ≥ 1000 | ≥ 1000 | 
COC(=O)c1cc2cc(NCc3cc(NC(=O)c4ccc(CN5CCN(C)CC5)c(C(F)(F)F)c4)ccc3F)cnc2[nH]1 [OR0816] |  |  | < 50 | ≥ 50 |  |  | ≥ 50 | ≥ 50 | ≥ 50 |  | ≥ 50 |  |  |  |  |  | ≤ 100 | 100 to 1000 |  | 100 to 1000
COC(=O)c1cc2cc(NCc3cc(NC(=O)c4ccc(C(F)(F)F)nc4)ccc3C)cnc2[nH]1 [OR0865] |  |  | ≥ 50 | ≥ 50 |  |  | < 50 | < 50 |  |  |  |  |  |  |  |  | 100 to 1000 | 100 to 1000 |  | ≥ 1000
COC(=O)c1cc2cc(NCc3cc(NC(=O)c4ccnc(C(F)(F)F)c4)ccc3C)cnc2[nH]1 [OR0866] |  |  | < 50 | < 50 |  |  | < 50 | < 50 | < 50 |  |  |  |  |  |  |  | 100 to 1000 | 100 to 1000 |  | ≥ 1000
COC(=O)c1cc2cc(NCc3cc(NC(=O)c4cncc(C)c4)ccc3C)cnc2[nH]1 [OR0867] |  |  | ≥ 50 | ≥ 50 |  |  | < 50 | ≥ 50 |  |  |  |  |  |  |  |  | ≥ 1000 | 100 to 1000 |  | ≥ 1000
COC(=O)c1cc2cc(NCc3cc(NC(=O)c4ccnc(C)c4)ccc3C)cnc2[nH]1 [OR0868] |  |  | ≥ 50 | < 50 |  |  | < 50 | < 50 |  |  |  |  |  |  |  |  | 100 to 1000 | ≥ 1000 |  | ≥ 1000
COC(=O)c1cc2cc(NCc3cc(NC(=O)c4ccc(C)c(C(F)(F)F)c4)ccc3C)cnc2[nH]1 [OR0869] |  |  | < 50 | ≥ 50 |  |  | < 50 | < 50 | < 50 |  | ≥ 50 |  |  |  |  |  | 100 to 1000 | ≥ 1000 |  | 100 to 1000
COC(=O)c1cc2cc(NCc3cc(NC(=O)c4ccc(Cl)c(C(F)(F)F)c4)ccc3C)cnc2[nH]1 [OR0871] |  |  | < 50 | ≥ 50 |  |  | < 50 | < 50 | ≥ 50 |  | ≥ 50 |  |  |  |  |  | 100 to 1000 | 100 to 1000 |  | 100 to 1000
COC(=O)c1cc2cc(NCc3cc(NS(=O)(=O)c4cccc(C(F)(F)F)c4)ccc3C)cnc2[nH]1 [OR0882] |  |  | < 50 | < 50 |  |  | < 50 | < 50 | < 50 |  |  |  |  |  |  |  | ≥ 1000 | ≥ 1000 |  | ≥ 1000
